{"source": "ChEMBL document CHEMBL1201862", "about": "“PubChem BioAssay data set” (2004)", "key": {"[1]": {"target": "T1, Calpain-2 catalytic subunit (Sus scrofa, UniProt P43367)", "T1 sequence (P43367 whole entry)": "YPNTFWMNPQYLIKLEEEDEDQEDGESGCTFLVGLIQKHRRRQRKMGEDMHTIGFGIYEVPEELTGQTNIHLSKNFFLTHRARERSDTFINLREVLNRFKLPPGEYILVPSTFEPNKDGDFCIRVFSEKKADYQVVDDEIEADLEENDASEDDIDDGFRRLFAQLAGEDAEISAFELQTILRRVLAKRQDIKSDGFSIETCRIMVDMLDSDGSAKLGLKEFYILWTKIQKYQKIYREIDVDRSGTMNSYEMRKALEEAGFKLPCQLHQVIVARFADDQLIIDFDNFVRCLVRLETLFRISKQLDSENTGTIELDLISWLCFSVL", "test": "m-calpain protease blockers, concentration series – biochemical, fluorogenic peptide substrate, dose response (AID 1420)", "assay_type": "functional"}, "[2]": {"target": "T2, Caspase-6 (Homo sapiens, UniProt P55212)", "T2 sequence (P55212 whole entry)": "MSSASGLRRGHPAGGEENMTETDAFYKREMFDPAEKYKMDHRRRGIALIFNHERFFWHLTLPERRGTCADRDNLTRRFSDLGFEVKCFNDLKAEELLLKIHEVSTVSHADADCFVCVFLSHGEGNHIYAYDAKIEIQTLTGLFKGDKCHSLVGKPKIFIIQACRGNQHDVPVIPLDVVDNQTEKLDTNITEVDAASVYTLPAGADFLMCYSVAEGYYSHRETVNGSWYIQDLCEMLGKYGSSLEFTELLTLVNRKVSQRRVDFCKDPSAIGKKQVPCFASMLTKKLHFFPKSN", "test": "inhibition of CASP6 peptide cleavage – biochemical, VEID-R110 fluorescence, cherry-pick, dose response (AID 720632)"}, "[3]": {"target": "Prothrombin (Homo sapiens, UniProt P00734)", "test": "Thrombin 1536 HTS Dose Response Confirmation. [Related pubchem assays: 1046 (Thrombin 1536 HTS; hits were confirmed in this assay)]", "assay_type": "functional"}, "[4]": {"target": "Cytochrome P450 2C9 (Homo sapiens, UniProt P11712)", "sequence (P11712 whole entry)": "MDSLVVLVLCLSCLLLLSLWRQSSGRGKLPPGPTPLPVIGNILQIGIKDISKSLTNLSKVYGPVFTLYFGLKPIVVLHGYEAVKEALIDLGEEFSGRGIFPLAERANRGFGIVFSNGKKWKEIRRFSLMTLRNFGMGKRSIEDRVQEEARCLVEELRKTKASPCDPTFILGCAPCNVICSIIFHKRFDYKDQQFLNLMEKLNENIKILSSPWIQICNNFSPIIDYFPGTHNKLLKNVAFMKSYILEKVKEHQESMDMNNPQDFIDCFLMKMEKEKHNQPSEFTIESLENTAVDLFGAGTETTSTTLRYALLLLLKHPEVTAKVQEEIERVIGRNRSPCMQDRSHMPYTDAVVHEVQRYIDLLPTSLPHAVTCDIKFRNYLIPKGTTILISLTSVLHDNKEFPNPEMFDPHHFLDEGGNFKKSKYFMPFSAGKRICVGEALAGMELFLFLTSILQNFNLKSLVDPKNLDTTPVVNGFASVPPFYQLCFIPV"}, "[5]": {"test": "luciferase reporter signal suppression in cells – H4 neuroglioma cells, luminescence, dose response (AID 1990)", "assay_type": "functional, cell-based"}, "[6]": {"target": "FAD-linked sulfhydryl oxidase ALR (Homo sapiens, UniProt P55789)", "sequence (P55789 whole entry)": "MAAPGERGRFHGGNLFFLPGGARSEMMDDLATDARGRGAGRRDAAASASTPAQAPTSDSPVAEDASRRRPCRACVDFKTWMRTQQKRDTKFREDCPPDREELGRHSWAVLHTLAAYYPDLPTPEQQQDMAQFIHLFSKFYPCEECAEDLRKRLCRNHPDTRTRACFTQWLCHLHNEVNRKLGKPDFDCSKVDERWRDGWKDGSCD", "test": "ALR-catalysed DTT oxidation blockers – biochemical, H2O2 detection, luminescence, cherry-pick, dose response (AID 493248)"}, "[7]": {"test": "Luminescence Cell-Based Dose Response HTS to Identify Inhibitors of 5'UTR Stem-Loop Driven Prion Protein mRNA Translation in H4 Neuroglioblastoma Cells. [Related pubchem assays: 1827 (Project Summary), 1813 (Primary HTS)]", "assay_type": "functional"}, "[8]": {"target": "Large T antigen (Simian virus 40, UniProt P03070)", "sequence (P03070 whole entry)": "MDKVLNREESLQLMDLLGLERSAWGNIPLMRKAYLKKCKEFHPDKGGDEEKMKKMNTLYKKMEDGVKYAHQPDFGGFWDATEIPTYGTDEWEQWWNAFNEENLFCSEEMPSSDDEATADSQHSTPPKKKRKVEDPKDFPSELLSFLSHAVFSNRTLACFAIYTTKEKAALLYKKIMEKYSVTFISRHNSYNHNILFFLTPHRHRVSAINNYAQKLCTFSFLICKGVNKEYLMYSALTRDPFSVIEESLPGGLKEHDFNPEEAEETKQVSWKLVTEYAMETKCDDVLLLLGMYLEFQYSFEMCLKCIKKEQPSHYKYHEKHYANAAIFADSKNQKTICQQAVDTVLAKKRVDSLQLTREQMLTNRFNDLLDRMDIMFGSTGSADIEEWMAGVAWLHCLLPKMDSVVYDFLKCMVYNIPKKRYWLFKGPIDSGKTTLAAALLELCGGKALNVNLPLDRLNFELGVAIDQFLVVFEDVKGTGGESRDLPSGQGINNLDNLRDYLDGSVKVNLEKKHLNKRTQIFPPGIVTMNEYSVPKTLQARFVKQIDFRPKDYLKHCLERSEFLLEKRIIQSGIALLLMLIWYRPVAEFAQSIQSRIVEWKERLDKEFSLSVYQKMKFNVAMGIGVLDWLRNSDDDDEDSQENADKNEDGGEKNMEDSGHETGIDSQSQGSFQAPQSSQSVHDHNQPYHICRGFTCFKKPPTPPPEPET", "assay_type": "functional, Betapolyomavirus macacae"}, "[9]": {"test": "alpha-synuclein stem-loop luciferase translation blockers – H4 neuroglioma cells, luminescence, confirmation (AID 1988)", "assay_type": "functional, cell-based"}, "[10]": {"test": "non-specific 3'UTR reporter inhibition in Clone20-Shn3RL – cell-based, Renilla luciferase, cherry-picked, counter-screen for Shn3 inhibitor project, dose response (AID 624133)", "assay_type": "functional"}, "[11]": {"test": "viability loss in HEK293 cells – cell-based, plate reader, cherry-picked samples, cytotoxicity control, dose response (AID 743446)", "assay_type": "functional"}, "[12]": {"test": "toxicity toward HepG2 liver cells – cell-based, plate reader, cherry-pick, antagonist series, cytotoxicity control, dose response (AID 743416)", "assay_type": "functional"}, "[13]": {"test": "A549 cell cytotoxicity, dose response, cytotoxicity control, plate reader, cherry-pick, antagonist series (AID 743412)", "assay_type": "functional, cell-based"}, "[14]": {"test": "loss of viability in HepG2 cells – cell-based, CellTiter-Glo, cherry-picked, cytotoxicity control for Shn3 inhibitor project, dose response (AID 624134)", "assay_type": "functional"}, "[15]": {"test": "blockers of bursicon-stimulated LGR2 cAMP reporter – cell-based, HEK293, CRE-luciferase reporter, cherry pick, set 2, dose response (AID 743343);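 note: transfected cells were stimulated with diluted bursicon conditioned medium after compound addition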", "assay_type": "functional"}, "[16]": {"test": "reduction of Shn3 3'UTR-driven luciferase in osteoblasts – cell-based, Clone20 osteoblasts, firefly luciferase, cherry-picked, dose response (AID 624132)", "assay_type": "functional"}, "[17]": {"test": "blockade of melanocortin 4 receptor signaling – cell-based, plate reader, cherry pick, counter-screen for LGR2 antagonist project, dose response (AID 743444);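 note: transfected HEK 293 cells stimulated with alpha-MSH peptide; potency of inhibitors of the alpha-MSH evoked signal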", "assay_type": "functional"}, "[18]": {"target": "Induced myeloid leukemia cell differentiation protein Mcl-1 (Homo sapiens, UniProt Q07820)", "sequence (Q07820 whole entry)": "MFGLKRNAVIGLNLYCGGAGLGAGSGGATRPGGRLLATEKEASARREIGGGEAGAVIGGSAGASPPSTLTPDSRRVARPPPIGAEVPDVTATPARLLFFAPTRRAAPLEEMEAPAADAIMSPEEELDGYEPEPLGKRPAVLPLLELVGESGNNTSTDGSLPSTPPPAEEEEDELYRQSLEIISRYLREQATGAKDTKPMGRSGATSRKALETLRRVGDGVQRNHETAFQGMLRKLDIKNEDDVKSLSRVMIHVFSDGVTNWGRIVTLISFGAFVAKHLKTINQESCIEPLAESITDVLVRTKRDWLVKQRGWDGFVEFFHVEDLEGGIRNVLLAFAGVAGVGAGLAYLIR", "assay_type": "functional"}}, "note": "Calls of active or inactive are those of the source."}
{"smiles": "COc1ccc(C(=O)Nc2cccc(-c3cc4ccccc4oc3=O)c2)cc1[N+](=O)[O-]", "values": [{"measurement": "IC50", "setting": "[1]", "value": "12.3 µM (not active)"}]}
{"smiles": "O=C(COC(=O)Cc1ccccc1)Nc1cc(S(=O)(=O)N2CCCCC2)ccc1Cl", "values": [{"measurement": "AC50", "setting": "[2]", "value": "38.3 µM (active)"}]}
{"smiles": "Nc1cc2cccnc2cc1Cl", "values": [{"measurement": "AC50", "setting": "[2]", "value": "25.6 µM (active)"}]}
{"smiles": "COc1ccc(C(=O)n2nc(-c3ccccc3)nc2SC)cc1", "values": [{"measurement": "IC50", "setting": "[3]", "value": "0.913 µM (active)"}, {"measurement": "AC50", "setting": "[4]", "value": "0.141 µM (inconclusive)"}]}
{"smiles": "O=C(O)c1ccc(N=Nc2c(O)[nH]c3cc(Cl)ccc23)cc1", "values": [{"measurement": "AC50", "setting": "[2]", "value": "49.4 µM (active)"}]}
{"smiles": "Nc1ccc(OC(=O)Nc2ccc(O)cc2)cc1", "values": [{"measurement": "EC50", "setting": "[5]", "value": "11.2 µM (active)"}, {"measurement": "AC50", "setting": "[6]", "value": "1.38 µM (active)"}, {"measurement": "AC50", "setting": "[2]", "value": "18.7 µM (active)"}, {"measurement": "EC50", "setting": "[7]", "value": "11.7 µM (active)"}, {"measurement": "IC50", "setting": "[8]", "value": "6.52 µM (active)"}, {"measurement": "EC50", "setting": "[9]", "value": "9.76 µM (active)"}]}
{"smiles": "Cc1cccc(C)c1-n1nnnc1C(c1cc2ccccc2o1)N1CCC(n2c(O)nc3ccccc32)CC1", "note": "(stereo not given)", "values": [{"measurement": "AC50", "setting": "[10]", "value": "4.09 µM (active)"}, {"measurement": "AC50", "setting": "[11]", "value": "4.96 µM (active)"}, {"measurement": "AC50", "setting": "[12]", "value": "1.98 µM (active)"}, {"measurement": "AC50", "setting": "[13]", "value": "6.22 µM (active)"}, {"measurement": "AC50", "setting": "[14]", "value": "2.97 µM (active)"}, {"measurement": "AC50", "setting": "[15]", "value": "3.43 µM (active)"}, {"measurement": "AC50", "setting": "[16]", "value": "3.05 µM (active)"}, {"measurement": "AC50", "setting": "[17]", "value": "3.33 µM (active)"}]}
{"smiles": "COc1cc(-n2c(=O)c3ccccc3n(Cc3cccc(C)c3)c2=O)cc(OC)c1OC", "values": [{"measurement": "IC50", "setting": "[1]", "value": "19.3 µM (active)"}]}
{"smiles": "COCC(=O)n1nc(-c2ccc(C)cc2)nc1NCc1ccc(F)cc1", "values": [{"measurement": "IC50", "setting": "[3]", "value": "0.502 µM (active)"}]}
{"smiles": "COc1cc(/C=C2\\SC(=S)N(CC(=O)O)C2=O)ccc1OS(=O)(=O)c1ccc(C)cc1", "values": [{"measurement": "AC50", "setting": "[6]", "value": "2.07 µM (active)"}, {"measurement": "AC50", "setting": "[2]", "value": "46.2 µM (active)"}]}
{"smiles": "OC1=C2C(=Nc3ccc4ncccc4c3C2c2ccc(O)c(O)c2)CCC1", "note": "(stereo not given)", "values": [{"measurement": "IC50", "setting": "[18]", "value": "4.38 µM (active)"}]}
